Results from EP0494754A1, “3-hydroxypyridin-4-one derivatives as pharmaceutical compositions” (BRITISH TECHNOLOGY GROUP LTD, priority 1991, dated 1992).
Where two headings read alike, the source gives them in different places.

Experiments:
Format in all cases: cell-based
P. falciparum [1] = test: 6 hour pulse exposure at different stages of the first parasite cycle, growth by tritiated hypoxanthine uptake; design: dose or concentration left out as unconfirmed; settings: Plasmodium falciparum
Method: In the case of 2-carboxymethyl-3-hydroxy-1-methylpyridin-4-one, 1-(2-carboxyethyl)-2-ethyl-3-hydroxypyridin-4-one and 1-(3-carboxypropyl)-2-methyl-3-hydroxypyridin-4-one a dosage level of 0.5 µmol/l was required to produce a similar level of growth inhibition and in the case of 3-hydroxy-2-methyl-1-(2-sulphoethyl)pyridin-4-one a dosage level of 1 µmol/l was required. (C) A culture of ring parasites obtained as in (A) was dispensed in 3 ml volumes into separate flasks. Different cultures were exposed during a 6 hour period to the compound 1 in a 100 µmol/l iron binding concentration at different stages during the first parasite cycle and controls containing no chelator were again employed. At the end of each 6 hour pulse, all cultures were washed twice in RPMI 1640 and the pellet was resuspended in complete medium. At 40 hours, when cells from cultures that had not been exposed at any time to a chelator contained segmenting schizonts, tritiated hypoxanthine was added to the incubation medium of all the cultures. Growth of the parasites was assessed after further periods of 42 hours (during second cycle), 65 hours (during third cycle) and 84 hours (during fourth cycle). Each pulse of compound 1 was duplicated in separate flasks. Morphologically, synchrony of the cultures was clearly lost during the third parasite cycle.
Furthermore, no morphological differences were detected between parasites that were sampled from these cultures and untreated parasites. On the other hand, incubation with compound 1 during the schizont stage (24-30 hours) of parasite development did produce an inhibitory effect on the growth of P. falciparum resulting in 38% and 30% growth inhibition during the second and third cycles. Morphologically these cultures contained a mixed population of degenerate forms and young ring parasites with evidence of red cell reinvasion. Thus it will be seen that the effect of compound 1 is maximised during the early schizont stage of the development of the parasite. However, the employment of 6 hour pulses in order to compare the effects of the compound at different stages, as opposed to the continuous treatment employed in (A), did lead to a lower level of anti-malarial effect.

P. falciparum [2] = test: Inhibition of growth of P. falciparum in red cell culture (tritiated hypoxanthine uptake, continuous exposure to chelator); settings: for growth inhibition of P. falciparum: 50 µmol/l iron binding concentration, after 30 hours, Figure 2; for percentage inhibition of growth after 30 hours as compared with the controls: iron binding concentration of 100 µmol of iron per litre, Figure 1
Method: (A) An uncloned strain of P. falciparum, ITO4, was grown on blood group O red cells using a modification of the method described by Trager et al in Science, 1976, […], 673. An atmopshere consisting of 1% oxygen, 3% carbon dioxide and 96% nitrogen was maintained throughout the experiments. Red cells were suspended at a hematocrit of 3% in RPMI 1640 that had been supplemented with 10% v/v human serum, 2 g/l glucose, 4 mM NaOH, 25 µg/ml gentamicin, 1.9 mM glutamine and 25 mM HEPES to form complete medium. For experimental purposes the red cells were then further diluted with the same medium to a final hematocrit of 1.5%. Synchronised parasite cultures were obtained using a combination of sorbitol lysis and gelatin flotation, as described respectively by Jensen et al in Am. J. Trop. Med. Hyg., 1978, 27, 1274 and Lambros et al in J. Parasitol., 1979, 65, 418, thus ensuring that only young ring forms remained. The starting parasitemia in each experiment was between 0.1 and 0.5%.
A red cell suspension containing only recently synchronised ring parasites was treated with 0.2 µCi of tritiated hypoxanthine per 100 µl of red cell suspension and one of ten chelating agents as identified in the Table was added in complete medium to the suspension in an amount such as to produce an iron binding concentration of 100 µmol of iron per litre (all of the chelators combine with iron in a ratio of 3 moles of chelator:1 mole of iron apart from the chelator number 10, desferrioxamine, which combines in a 1:1 molar ratio). The test cultures were immediately dispersed in 200 µl aliquots into 96 well microculture plates. Each chelator was tested in three or more wells and the whole experiment was carried out at least twice for each chelator. Control cultures were used in each experiment which contained no iron chelator.
The growth of the P. falciparum parasites was assessed both by light microscopy examination of thin films that had been stained with Giemsa and through measurement of tritiated hypoxanthine uptake, the cell cultures being harvested onto glass fibre filters and radioactivity, in terms of beta emission from each well, being measured in a flat bed liquid scintillation counter as described by Potter et al in Phys. Med. Biol., 1986, 31(4), 361.
The chelators tested consisted of 1-(2′-carboxyethyl)-3-hydroxy-2-methylpyridin-4-one (R₁ = CH₂CH₂CO₂H, R₂ = CH₃, R₃ = R₄ = H; compound 1) and, for the purposes of comparison with this chelator, nine other chelators not of formula (I) as defined hereinbefore, of which compounds 2 to 9 are 3-hydroxypyridin-4-ones and compound 10 is desferrioxamine. […] These findings were supported by a morphological examination of red cells sampled from the cultures. […] (B) The effect of using different dosage levels than the 100 µmol/l level used in (A) was studied employing the same procedure but using four dosage levels of 10 µmol/l, 25 µmol/l, 50 µmol/l and […]. Only the eight chelators which produced an inhibitory effect at 100 µmol/l were studied and controls containing no iron chelator were again employed.

MEL cells, clone 585 = test: Inhibition of growth of murine erythroleukaemia (MEL) cells, cell counting; settings: 50 µmol/l iron binding concentration; after 30 hours; Figure 2
Method: MEL cells, clone 585, were grown in suspension culture at 37°C in RPMI 1640 that had been supplemented with 13% v/v foetal calf serum, 25 µl/ml gentamicin, 1.9 mM glutamine and 2% diaminopurine as described by Peto et al in Br. J. Haematol., 1983, 54, 623. The cultures were maintained in an atmosphere containing 5% carbon dioxide and passaged every 3-4 days at a seeding concentration of 1-2 x 10⁴/ml to ensure that the cells were continually in logarithmic growth phase. Under these conditions, the doubling time for cell growth was 30-36 hours.
10 ml volumes of cell suspension were incubated in 50 ml flasks with each of the ten chelators identified in the Table at a 50 µmol/l iron binding concentration, controls being employed which contained no chelator. 400 µl aliquots were removed in duplicate for growth assessment at 24 hour intervals over the next four days. The experiment was repeated on three separate occasions, the initial cell concentration in each case being 2-3 x 10⁴ cells/ml. Cell growth was assessed both by examination of cultures using light microscopy and by cell counting. At various times throughout each experiment, 400 µl culture was added to 19.6 ml Isoton and the number of particles counted using a Coulter Counter ZN set at threshold 20 and attenuation 0.4
The effect of the different chelators on growth of the MEL cells after 30 hours was compared with the effect produced after a similar time by the same chelators at a 50 µmol/l iron binding concentration using the procedure described in Example 2(A). The results are illustrated in Figure 2. It will be seen that the compounds 2, 3, 4, 5, 6, 9 and 10 inhibited growth of MEL cells and of P. falciparum, the minimum growth inhibition being 80% and 70% respectively. […] When these two groups of chelators were examined together a close linear correlation (r = 0.978) was found between the degree of growth inhibition produced in both types of cell for each chelator studied. The compound 1 was distinguished from all of the other chelators in being the only one to have no significant inhibitory effect on the growth of MEL cells (<10%) whilst at the same time producing a substantial inhibitory effect on the growth of P. falciparum (>75%).

P. falciparum [3] = test: Red cell reinvasion at the beginning of the second parasite cycle (light microscopy)
Method: A study was made of red cells from cultures involving various dosage levels harvested at the beginning of the second parasite cycle, when young rings could be identified in untreated control cultures in order to determine whether or not red cell reinvasion had occurred in the cultures that had been exposed to a chelator. […] However, for the 3-hydroxypyridin-4-one compounds 1 to 6 and 9, young ring parasites were frequently found after incubation at a 25 µmol/l dosage level of the chelator and were always found at a 10 µmol/l dosage level, no significant differences being seen between the different compounds. At 50 µmol/l and 100 µmol/l no evidence of reinvasion was found. Thus, although the 3-hydroxypyridin-4-ones do produce growth inhibition at the lower dosage levels of 10 µmol/l and 25 µmol/l, higher levels than this are required to produce a cytocidal action.

Structure (SMILES)	inhibition (P. falciparum [1]; 6 hour pulse at 6-12 hours of first cycle, read-out: growth inhibition during the third cycle) [%]	inhibition (P. falciparum [1]; 6 hour pulse at 12-18 hours of first cycle, read-out: growth inhibition during the second cycle) [%]	inhibition (P. falciparum [1]; 6 hour pulse at 12-18 hours of first cycle, read-out: growth inhibition during the third cycle) [%]	inhibition (P. falciparum [1]; 6 hour pulse at 18-24 hours of first cycle, read-out: growth inhibition during the second cycle) [%]	inhibition (P. falciparum [1]; 6 hour pulse at 18-24 hours of first cycle, read-out: growth inhibition during the third cycle) [%]	inhibition (P. falciparum [1]; 6 hour pulse during the schizont stage (24-30 hours), read-out: growth inhibition during the second cycle) [%]	inhibition (P. falciparum [1]; 6 hour pulse during the schizont stage (24-30 hours), read-out: growth inhibition during the third cycle) [%]	growth inhibition of P. falciparum (P. falciparum [2]) [%]	minimal effective concentration (P. falciparum [2]; Plasmodium falciparum, further study, method not detailed, read-out: dosage level at which marked growth inhibition was observed) [µM]	level of activity against red blood cells parasitized by P. falciparum (relative ranking) (P. falciparum [2]; comparison between compounds, no figures)	percentage inhibition of growth after 30 hours as compared with the controls (P. falciparum [2])	growth inhibition of MEL cells (MEL cells, clone 585) [%]	red cell reinvasion (young ring parasites) (P. falciparum [3]; 10 µmol/l dosage level)	red cell reinvasion (young ring parasites) (P. falciparum [3]; 25 µmol/l dosage level)	red cell reinvasion (young ring parasites) (P. falciparum [3]; 50 µmol/l dosage level)	red cell reinvasion (young ring parasites) (P. falciparum [3]; 100 µmol/l dosage level)	IC50 (P. falciparum [2]; Plasmodium falciparum, four dosage levels (iron binding concentration), same procedure as (A), read-out: ID50 (the source's name)) [µM]
Cc1c(O)c(=O)ccn1CCC(=O)O [compound 1, 1-(2-carboxyethyl)-3-hydroxy-2-methylpyridin-4-one]	0	11.4	12	0	0	38	30	> 75	0.1	higher level of activity against red blood cells parasitized by P. falciparum than compounds (12) and (16)	more than 65%	< 10	–	–	–	–	–
CC(=O)N(O)CCCCCNC(=O)CCC(=O)N(O)CCCCCNC(=O)CCC(=O)N(O)CCCCCN [compound 10, Desferrioxamine]	–	–	–	–	–	–	–	≥ 70	–	–	more than 65%	≥ 80	always found	No evidence was found of reinvasion	No evidence was found of reinvasion	No evidence was found of reinvasion	10 to 20
